Key:
Test in all cases: Gal4 hybrid reporter gene assay
Type in all cases: cell-based
Conditions in all cases: agonist mode; printed as 'inactive' (no significant transactivation at 30 μM)
PPARα = molecular target: T1, PPARα (Homo sapiens, UniProt Q07869)
T1 sequence (Q07869 167-468 limits assumed): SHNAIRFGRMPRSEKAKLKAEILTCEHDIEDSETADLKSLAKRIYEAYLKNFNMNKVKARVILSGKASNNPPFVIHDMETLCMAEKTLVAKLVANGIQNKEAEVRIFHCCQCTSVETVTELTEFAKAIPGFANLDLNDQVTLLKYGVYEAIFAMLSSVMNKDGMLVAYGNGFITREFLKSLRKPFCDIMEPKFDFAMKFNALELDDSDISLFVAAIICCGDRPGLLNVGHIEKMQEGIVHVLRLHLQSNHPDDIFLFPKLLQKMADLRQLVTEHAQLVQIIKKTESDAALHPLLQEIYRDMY

PPARδ = molecular target: T2, PPARδ (Homo sapiens, UniProt Q03181)
T2 sequence (Q03181 139-441 limits assumed): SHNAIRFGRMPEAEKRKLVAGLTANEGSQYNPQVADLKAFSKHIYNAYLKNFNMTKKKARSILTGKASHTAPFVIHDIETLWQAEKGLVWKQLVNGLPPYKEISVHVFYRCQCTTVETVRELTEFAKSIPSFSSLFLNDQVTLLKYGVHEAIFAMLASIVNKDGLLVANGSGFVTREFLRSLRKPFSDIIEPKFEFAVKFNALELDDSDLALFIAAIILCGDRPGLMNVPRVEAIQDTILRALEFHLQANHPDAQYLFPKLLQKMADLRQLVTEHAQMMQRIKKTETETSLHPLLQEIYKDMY

RXRα = molecular target: T3, RXRα (Homo sapiens, UniProt P19793)
T3 sequence (P19793 225-462 limits assumed): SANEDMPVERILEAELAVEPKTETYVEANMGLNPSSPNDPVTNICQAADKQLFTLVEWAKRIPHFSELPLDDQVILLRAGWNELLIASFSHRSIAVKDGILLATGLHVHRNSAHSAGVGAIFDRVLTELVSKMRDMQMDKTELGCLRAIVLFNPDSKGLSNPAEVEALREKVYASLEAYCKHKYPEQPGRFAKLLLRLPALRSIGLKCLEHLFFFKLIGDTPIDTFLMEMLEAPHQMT

RXRβ = molecular target: T4, RXRβ (Homo sapiens, UniProt P28702)
T4 sequence (P28702 296-533 limits assumed): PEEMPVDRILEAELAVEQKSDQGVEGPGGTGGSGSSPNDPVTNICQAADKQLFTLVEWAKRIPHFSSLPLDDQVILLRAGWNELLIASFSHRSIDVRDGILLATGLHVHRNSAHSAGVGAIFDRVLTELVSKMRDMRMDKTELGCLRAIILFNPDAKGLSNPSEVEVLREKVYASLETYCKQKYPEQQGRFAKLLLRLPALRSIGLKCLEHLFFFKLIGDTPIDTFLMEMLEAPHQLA

RXRγ = molecular target: T5, RXRγ (Homo sapiens, UniProt P48443)
T5 sequence (P48443 231-459 limits assumed): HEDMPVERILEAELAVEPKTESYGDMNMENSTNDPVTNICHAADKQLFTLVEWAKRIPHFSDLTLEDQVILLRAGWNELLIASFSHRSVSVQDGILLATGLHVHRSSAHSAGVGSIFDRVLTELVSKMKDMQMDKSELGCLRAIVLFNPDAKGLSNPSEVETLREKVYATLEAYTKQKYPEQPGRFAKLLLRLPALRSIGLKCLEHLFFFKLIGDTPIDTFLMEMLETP

Compound | EC50 (PPARα) [µM] | EC50 (PPARδ) [µM] | EC50 (RXRα) [µM] | EC50 (RXRβ) [µM] | EC50 (RXRγ) [µM]
O=C(O)c1cccc(NC(=O)c2ccc(-c3ccccc3)s2)c1 [compound 1, design 1] | > 30 | > 30 | – | – | –
O=C(O)c1ccc(-c2cc(F)ccc2OCc2ccc(F)cc2)c(C(F)(F)F)c1 [compound 2, design 2] | > 30 | > 30 | – | – | –
O=C(O)c1ccc(-c2cccc(O)c2)cc1OC1CCCC1 [compound 3, design 3] | – | > 30 | > 30 | > 30 | > 30
